Data from patent publication US5332734A, “Oxazinone derivative” (Japan Tobacco, Incorporated, priority 1991, dated 1994).

Legend:
[1] = target: T1, human sputum elastase (HSE) (Homo sapiens, UniProt P08246); assay: HSE inhibitory activity; format: biochemical; details: HSE 10 nM, substrate 0.25 mM, pH 7.0
T1 construct: purchased Sigma Inc; host or cells: human sputum (by its name)
T1 sequence (P08246 30-247 limits assumed): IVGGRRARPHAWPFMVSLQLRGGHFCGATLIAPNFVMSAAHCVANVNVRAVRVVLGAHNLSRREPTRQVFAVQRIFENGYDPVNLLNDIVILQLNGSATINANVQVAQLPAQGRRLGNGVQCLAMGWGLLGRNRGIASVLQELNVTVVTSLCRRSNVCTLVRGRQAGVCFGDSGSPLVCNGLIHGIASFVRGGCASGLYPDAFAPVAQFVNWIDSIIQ
Method: (§1) Inhibotory activities of the oxadinone derivative of the present invention against human leukocyte elastase (HLE), human sputum elastase (HSE), human cathepsin G (HCG), bovine pancreatic α-chymotrypsin (CYT) and bovine pancreatic trypsin (TRY) were measured as follows:
(2) Measurement of HSE Inhibiting Activity
(§2) a) Enzyme Preparing Method Bought from Sigma Inc.
(§3) Employed was a measuring method similar to that described previously in conjunction with the measurement of the HLE inhibitory activity, except that used was a buffer solution of pH 7.0. The final concentrations of HSE and the synthetic substrate (MeOSuc-Ala-Ala-Pro-Phe-pNA; FUNAKOSHI) in the solution of the enzyme reaction were 10 nM and 0.25 mM, respectively.

[2] = test system: neutrophil infiltration into carrageenin-induced air pouch inflammation; assay: Suppressing neutrophil infiltration into carrageenin-induced air pouch inflammation; format: in vivo, SD series male rats; details: 17 μmol into air pouch, 5 hours; for Cell Infiltration Capability: control = 100
Method: Test: 3 Effect of the Invented Compound for Suppressing Neutrophil Infiltration into carrageenin-induced Air Pouch Inflammation
Groups of SD series male rats (5 five weeks old and each weighing 110 to 130 g) were used in this experiment, each group consisting of five rats. In the first step, an air bladder was formed on the back of the rat by hypodermic injection of 8 ml of air while anesthetizing the rat with either. Twenty-four hours later, 5 ml of a physiological saline containing 1% of carrageenin manufactured by Wako K.K. was injected into the air pouch. Promptly after the carrageenin injection, a solution prepared by dissolving the test material (compound of the present invention) in 200 μl of DMSO (dimethylsulfoxide) was administered to the air pouch on the back of the rat.
Five hours later, the rat was killed and the blood was released therefrom. Then, 5 ml of PBS containing 10 mM of EDTA (ethylenediamine tetraacetate) was injected into the air pouch. The exudate within the air bladder was washed and, then, recovered. A predetermined amount of the recovered exudate was measured by a colter counter so as to count the number of infiltrated cells.
The effect of the test material for suppressing the cell infiltration into the carrageenin induced inflammation was determined by the formula given below, in which the value obtained by subtracting the number of infiltrated cells in the experiment in which carrageenin was not administered from the number of infiltrated cells in the reference group in which a medicine was not administered was set at 100:
= 100 - (U - V)/(W - V) × 100
S: Cell infiltration capability in the case of containing the compound of the present invention;
T: Cell infiltration capability in the case of not containing the compound of the present invention;
U: The number of infiltrated cells in the case of administering the compound of the present invention and carrageenin;
V: The number of infiltrated cells in the case of not adding carrageenin; and
W: The number of infiltrated cells in the case of administering carrageenin only.

[3] = target: T2, bovine pancreatic trypsin (TRY) (Bos taurus, UniProt P00760); assay: TRY inhibitory activity; format: biochemical; details: TRY 25 nM, substrate 1.0 mM, pH 7.5
T2 construct: purchased Sigma Inc; host or cells: bovine pancreas (by its name)
T2 sequence (P00760 24-246): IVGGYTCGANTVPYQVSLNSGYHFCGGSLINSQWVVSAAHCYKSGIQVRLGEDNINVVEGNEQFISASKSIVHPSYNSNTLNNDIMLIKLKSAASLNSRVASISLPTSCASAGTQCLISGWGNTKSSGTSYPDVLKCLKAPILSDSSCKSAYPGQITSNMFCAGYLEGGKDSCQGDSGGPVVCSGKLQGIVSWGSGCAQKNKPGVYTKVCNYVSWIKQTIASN
Method: as §1
(5) Measurement of TRY Inhibitory Activity
as §2
as §3, with “inhibiting” for “inhibitory”, “7.5.” for “7.0.”, “TRY” for “HSE”, “(Z-Arg-pNA;” for “(MeOSuc-Ala-Ala-Pro-Phe-pNA;”, “25” for “10”, “1.0” for “0.25”

[4] = target: T3, bovine pancreatic α-chymotrypsin (CYT) (Bos taurus, UniProt P00766); assay: CYT inhibitory activity; format: biochemical; details: CYT 3.4 nM, substrate 0.273 mM, pH 8.0
T3 construct: purchased Sigma Inc; host or cells: bovine pancreas (by its name)
Method: as §1
(4) Measurement of CYT Inhibitory Activity
as §2
as §3, with “inhibiting” for “inhibitory”, “8.0.” for “7.0.”, “CYT” for “HSE”, “(Ac-Ala-Ala-Pro-Phe-pNA;” for “(MeOSuc-Ala-Ala-Pro-Phe-pNA;”, “3.4” for “10”, “0.273” for “0.25”

[5] = target: T4, human cathepsin G (HCG) (Homo sapiens, UniProt P08311); assay: HCG inhibitory activity; format: biochemical; details: HCG 50 nM, substrate 0.5 mM, pH 7.5
T4 construct: purchased Cosmo Bio Inc
T4 sequence (P08311 21-255): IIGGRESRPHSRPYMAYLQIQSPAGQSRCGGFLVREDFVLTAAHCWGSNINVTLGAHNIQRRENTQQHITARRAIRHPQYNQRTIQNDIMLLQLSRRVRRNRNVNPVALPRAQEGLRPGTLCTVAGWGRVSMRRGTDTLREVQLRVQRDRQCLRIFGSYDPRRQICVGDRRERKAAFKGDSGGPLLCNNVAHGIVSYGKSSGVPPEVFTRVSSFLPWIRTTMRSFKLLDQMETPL
Method: as §1
(3) Measurement of HCG Inhibitory Activity
a) Enzyme Preparing Method Bought from Cosmo Bio Inc.
as §3, with “inhibiting” for “inhibitory”, “7.5.” for “7.0.”, “HCG” for “HSE”, “(Ac-Ala-Ala-Pro-Phe-pNA;” for “(MeOSuc-Ala-Ala-Pro-Phe-pNA;”, “50” for “10”, “0.5” for “0.25”

IC50 [1] [µM] | IC50 [3] [µM] | IC50 [4] [µM] | IC50 [5] [µM] | SMILES | Rate (%) of Suppressing Cell Infiltration [2] [%] | Cell Infiltration Capability [2]
0.3 | > 6.68 | 4.46 | > 5.34 | Cc1cccc2nc([C@H](CC(C)C)NC(=O)OCC3c4ccccc4-c4ccccc43)oc(=O)c12 [Compound 2, 2-{1(S)-[(9-fluorenylmethoxycarbonyl)amino]-3-methylbutyl}-5-methyl-4H-3,1-benzoxazin-4-one] | 24 | 76
0.31 | > 6.89 | 4.75 | > 5.5 | Cc1cccc2nc([C@@H](NC(=O)OCC3c4ccccc4-c4ccccc43)C(C)C)oc(=O)c12 [Compound 1, 2-{1(S)-[(9-fluorenylmethoxycarbonyl)amino]-2-methylpropyl}-5-methyl-4H-3,1-benzoxazin-4-one] | 38 | 62
